Test results published in ChEMBL document CHEMBL3301562, “MMV Box screening against Plasmodium falciparum protein kinases and aminoacyl tRNA synthetases”.

Experiments:
Assay type in all cases: functional
[1] = target: T1, Cdk-related protein kinase 6 (Plasmodium falciparum, UniProt O77239); experiment: Final concentrations were 1.5 uM ATP, 5 mM MnCl2, and 15 ug/ml PK6 in a buffer of 100 mM Tris-HCl (pH 7.5). 50 ug/mL MBP was provided as the substrate; 10 uM staurosporine was used as a control inhibitor. Incubation time was 3 hours and 40 minutes.The catalytic activity of each kinase was considered proportional to ATP consumed, as determined from measurements of residual [ATP] with the luciferase-based reagent Kinase-Glo (Promega) following incubation. Luminescence (proportional to residual [ATP]) was measured on the plate readers FLx800 (BioTek Instruments, Winooski, VT, USA) and MicroBeta2.
T1 sequence (O77239 whole entry): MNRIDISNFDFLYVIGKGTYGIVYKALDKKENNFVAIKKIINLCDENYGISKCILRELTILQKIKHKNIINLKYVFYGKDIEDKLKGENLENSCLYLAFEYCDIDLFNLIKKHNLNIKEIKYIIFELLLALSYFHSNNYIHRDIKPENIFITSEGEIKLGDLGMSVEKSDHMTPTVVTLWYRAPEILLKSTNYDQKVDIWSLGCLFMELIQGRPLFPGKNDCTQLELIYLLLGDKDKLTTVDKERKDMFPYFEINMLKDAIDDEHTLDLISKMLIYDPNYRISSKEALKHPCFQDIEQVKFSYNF

[2] = target: T2, Putative uncharacterized protein pk7 (Plasmodium falciparum, UniProt O96214); experiment: Final concentrations were 1 uM ATP, 2 mM DTT, 20 mM MgCl2, 2 mM MnCl2, 0.01% BSA, and 6 ug/ml PK7, in a buffer of 20 mM Tris-HCl (pH 7.5). The enzyme itself was the only substrate present (since autophosphorylation occurs); 100 uM 1NA-PP1 was used as a control inhibitor. Incubation time was 3 hours.
T2 sequence (O96214 whole entry): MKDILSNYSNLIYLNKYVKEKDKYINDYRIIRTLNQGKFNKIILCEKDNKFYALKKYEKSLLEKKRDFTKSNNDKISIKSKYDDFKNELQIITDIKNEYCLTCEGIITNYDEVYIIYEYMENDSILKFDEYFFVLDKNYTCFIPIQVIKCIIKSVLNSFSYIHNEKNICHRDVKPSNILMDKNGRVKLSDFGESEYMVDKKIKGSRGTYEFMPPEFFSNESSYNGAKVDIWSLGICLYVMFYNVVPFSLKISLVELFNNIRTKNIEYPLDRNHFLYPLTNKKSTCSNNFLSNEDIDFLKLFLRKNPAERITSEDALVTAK

[3] = target: T3, Mitogen-activated protein kinase (Plasmodium falciparum, UniProt Q25917); experiment: Final concentrations were 1 uM ATP, 0.5 mM DTT, 1 mM MgCl2, 0.5 mg/mL BSA, and 10 ug/ml MAP2 in a buffer of 50 mM HEPES (pH 7.0). 0.5 mg/mL histone III-S served as the substrate (13); 100 uM AMP-PNP, an ATP analog, was used as a control inhibitor. Incubation time was 4 hours.
T3 sequence (Q25917 whole entry): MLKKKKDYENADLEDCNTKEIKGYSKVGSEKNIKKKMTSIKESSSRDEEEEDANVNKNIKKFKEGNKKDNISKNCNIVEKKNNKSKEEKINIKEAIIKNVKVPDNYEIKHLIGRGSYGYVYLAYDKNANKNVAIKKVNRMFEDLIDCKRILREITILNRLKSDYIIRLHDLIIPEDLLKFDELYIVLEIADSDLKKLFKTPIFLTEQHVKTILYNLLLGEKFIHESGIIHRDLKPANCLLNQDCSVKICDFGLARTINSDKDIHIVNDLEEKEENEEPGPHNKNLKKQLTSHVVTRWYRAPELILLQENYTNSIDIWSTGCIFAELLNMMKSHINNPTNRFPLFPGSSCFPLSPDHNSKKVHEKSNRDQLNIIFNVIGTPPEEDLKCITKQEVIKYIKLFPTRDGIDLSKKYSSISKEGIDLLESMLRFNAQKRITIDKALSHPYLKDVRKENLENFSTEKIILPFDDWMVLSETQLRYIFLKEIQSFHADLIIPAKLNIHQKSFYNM

[4] = target: Calcium-dependent protein kinase 1 (Plasmodium falciparum, UniProt P62344); experiment: MMV: CDPK1 Protein kinase inhibition assay using recombinant PfCDPK1, syntide 2 peptide substrate, ATP and KinaseGlo to measure % inhibition at 1 uM MMV box compound.
Chain of Calcium-dependent protein kinase 1 (P62344 whole entry): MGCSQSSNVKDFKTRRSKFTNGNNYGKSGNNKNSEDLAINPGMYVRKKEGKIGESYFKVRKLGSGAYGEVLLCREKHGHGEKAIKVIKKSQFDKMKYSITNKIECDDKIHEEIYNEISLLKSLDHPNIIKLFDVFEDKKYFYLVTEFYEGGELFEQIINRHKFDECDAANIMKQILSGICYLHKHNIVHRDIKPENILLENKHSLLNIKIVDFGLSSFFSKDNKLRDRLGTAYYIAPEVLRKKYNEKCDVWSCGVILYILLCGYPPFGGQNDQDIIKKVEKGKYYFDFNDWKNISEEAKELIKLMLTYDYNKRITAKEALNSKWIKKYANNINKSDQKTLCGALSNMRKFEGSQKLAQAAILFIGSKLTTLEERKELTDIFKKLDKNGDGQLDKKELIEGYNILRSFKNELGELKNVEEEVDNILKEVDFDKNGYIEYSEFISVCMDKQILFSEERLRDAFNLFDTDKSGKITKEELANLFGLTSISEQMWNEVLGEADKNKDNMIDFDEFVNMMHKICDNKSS

[5] = target: T4, Calcium-dependent protein kinase 4 (Plasmodium falciparum (isolate 3D7), UniProt Q8IBS5); experiment: MMV: CDPK4 Protein kinase inhibition assay using recombinant PfCDPK4, syntide2 peptide substrate, ATP and KinaseGlo to measure % inhibition at 1 uM MMV box compound.
T4 sequence (Q8IBS5 whole entry): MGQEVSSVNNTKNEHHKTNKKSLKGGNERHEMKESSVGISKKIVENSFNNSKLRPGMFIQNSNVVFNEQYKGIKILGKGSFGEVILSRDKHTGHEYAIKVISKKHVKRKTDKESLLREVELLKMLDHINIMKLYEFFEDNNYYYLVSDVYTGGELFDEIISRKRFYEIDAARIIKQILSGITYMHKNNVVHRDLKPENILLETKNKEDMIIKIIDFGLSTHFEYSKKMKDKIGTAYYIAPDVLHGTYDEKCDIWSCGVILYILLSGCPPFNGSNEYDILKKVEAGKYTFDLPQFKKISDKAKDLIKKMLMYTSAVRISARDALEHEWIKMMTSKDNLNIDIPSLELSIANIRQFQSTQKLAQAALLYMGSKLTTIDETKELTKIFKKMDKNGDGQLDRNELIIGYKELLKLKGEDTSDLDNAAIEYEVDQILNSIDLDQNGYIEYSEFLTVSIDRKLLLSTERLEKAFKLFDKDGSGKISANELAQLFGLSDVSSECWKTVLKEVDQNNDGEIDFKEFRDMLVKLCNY

[6] = target: T5, Proline--tRNA ligase (Plasmodium falciparum (isolate 3D7), UniProt Q8I5R7); experiment: MMV: ProRS recombinant Plasmodium falciparum Prolyl-tRNA-synthetase, assay with yeast tRNA, ATP, and proline and 3 uM MMV malaria box compound, assay read out with kinase glo as % inhibition.
T5 sequence (Q8I5R7 whole entry): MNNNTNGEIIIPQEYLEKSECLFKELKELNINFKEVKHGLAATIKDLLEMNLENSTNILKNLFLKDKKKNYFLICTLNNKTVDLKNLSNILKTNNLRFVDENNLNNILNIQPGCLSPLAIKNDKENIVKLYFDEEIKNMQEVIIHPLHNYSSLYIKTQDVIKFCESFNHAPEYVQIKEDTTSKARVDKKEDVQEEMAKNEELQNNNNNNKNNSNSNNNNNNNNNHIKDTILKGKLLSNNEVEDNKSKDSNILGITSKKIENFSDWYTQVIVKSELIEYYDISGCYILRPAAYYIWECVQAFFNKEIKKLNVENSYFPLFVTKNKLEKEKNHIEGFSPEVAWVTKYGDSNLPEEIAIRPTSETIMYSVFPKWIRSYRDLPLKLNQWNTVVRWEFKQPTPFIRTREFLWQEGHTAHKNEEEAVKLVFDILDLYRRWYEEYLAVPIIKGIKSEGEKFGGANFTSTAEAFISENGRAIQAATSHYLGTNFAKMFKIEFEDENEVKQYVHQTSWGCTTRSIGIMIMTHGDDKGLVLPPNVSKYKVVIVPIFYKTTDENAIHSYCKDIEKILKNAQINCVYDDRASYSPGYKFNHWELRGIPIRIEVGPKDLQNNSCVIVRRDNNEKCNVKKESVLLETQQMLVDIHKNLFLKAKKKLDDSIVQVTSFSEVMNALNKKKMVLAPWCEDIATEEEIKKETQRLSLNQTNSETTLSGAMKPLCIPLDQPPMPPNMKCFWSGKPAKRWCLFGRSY

[7] = target: Lysine--tRNA ligase (Plasmodium falciparum (isolate 3D7), UniProt Q8IDJ8); experiment: MMV: KRS recombinant Plasmodium falciparum Lysyl-tRNA-synthetase, assay with yeast tRNA, ATP, and lysine and 3 uM MMV malaria box compound, assay read out with kinase glo as % inhibition.
Chain of Lysine--tRNA ligase (Q8IDJ8 whole entry): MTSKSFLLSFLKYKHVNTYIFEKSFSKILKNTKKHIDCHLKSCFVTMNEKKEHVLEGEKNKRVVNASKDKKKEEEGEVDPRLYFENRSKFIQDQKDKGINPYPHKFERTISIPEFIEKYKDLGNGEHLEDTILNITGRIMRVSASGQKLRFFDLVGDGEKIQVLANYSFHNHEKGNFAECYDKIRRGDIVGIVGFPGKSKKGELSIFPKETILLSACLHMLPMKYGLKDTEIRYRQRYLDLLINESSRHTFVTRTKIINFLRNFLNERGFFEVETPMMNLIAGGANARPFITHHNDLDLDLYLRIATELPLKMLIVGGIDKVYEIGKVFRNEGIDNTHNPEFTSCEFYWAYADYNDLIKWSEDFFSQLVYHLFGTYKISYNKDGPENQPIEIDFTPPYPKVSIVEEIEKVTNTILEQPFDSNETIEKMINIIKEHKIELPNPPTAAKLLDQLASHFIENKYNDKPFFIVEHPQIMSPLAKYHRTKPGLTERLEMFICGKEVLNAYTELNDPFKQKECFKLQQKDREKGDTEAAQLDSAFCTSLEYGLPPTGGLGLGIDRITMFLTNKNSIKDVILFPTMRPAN

SMILES	IC50 [1]	IC50 [2]	IC50 [3]	IC50 [4]	IC50 [5]	IC50 [6]	IC50 [7]
O=C(c1ccccc1F)N(Cc1ccc(Cl)cc1)c1ccccn1	> 1000 nM	> 1000 nM	> 1000 nM	> 1000 nM	> 1000 nM	> 2500 nM	> 2500 nM
COc1ccc(C(=O)Nc2ccc(Cl)cc2C(=O)Nc2ccncc2)cc1	> 1000 nM	> 1000 nM	> 1000 nM	> 1000 nM	> 1000 nM	> 2500 nM	> 2500 nM
CN(C)c1ccc(-c2nc3cc(N)ccc3[nH]2)cc1	> 1000 nM	> 1000 nM	> 1000 nM	> 1000 nM	> 1000 nM	> 2500 nM	> 2500 nM
O=C(CSc1ccc2nnc(-c3cccc(F)c3)n2n1)Nc1ccc2c(c1)OCO2	> 1000 nM	> 1000 nM	> 1000 nM	> 1000 nM	> 1000 nM	> 2500 nM	> 2500 nM
Cc1c(C)n(Cc2ccc(F)cc2)c2ccc(C(=O)NCc3ccco3)cc12	> 1000 nM	> 1000 nM	> 1000 nM	> 1000 nM	> 1000 nM	> 2500 nM	> 2500 nM
CCCCNCC(O)(c1ccc(Cl)cc1)c1ccc(Cl)cc1	> 1000 nM	> 1000 nM	> 1000 nM	> 1000 nM	> 1000 nM	> 2500 nM	> 2500 nM
O=C(Nc1cccc(C(F)(F)F)c1)c1cc(Cl)ccc1O	> 1000 nM	> 1000 nM	> 1000 nM	> 1000 nM	> 1000 nM	> 2500 nM	> 2500 nM
CCOc1cccc2sc(N(Cc3cccnc3)C(=O)C3CCCCC3)nc12	> 1000 nM	> 1000 nM	> 1000 nM	> 1000 nM	> 1000 nM	> 2500 nM	> 2500 nM
O=C(Nc1ccccc1O)c1ccc(-c2ccc(Cl)cc2Cl)o1	> 1000 nM	> 1000 nM	> 1000 nM	> 1000 nM	> 1000 nM	> 2500 nM	> 2500 nM
COc1ccccc1N1CCN(C(CNS(=O)(=O)c2ccc(Cl)cc2)c2cccnc2)CC1 (configuration not stated)	> 1000 nM	> 1000 nM	> 1000 nM	> 1000 nM	> 1000 nM	> 2500 nM	> 2500 nM
CCN(CC)CCCNc1nc(-c2ccc(Cl)cc2)nc2ccccc12	> 1000 nM	> 1000 nM	> 1000 nM	> 1000 nM	> 1000 nM	> 2500 nM	> 2500 nM
